Reference: US20220265776A1, “COMBINATION” (GENESIS PHARMA SA, priority 2019, published 2022)

Assays:
[1] = system: rat model of transient middle cerebral artery occlusion; test: Rat t-MCAO: brain infarct size (TTC staining, ImageJ); type: in vivo; conditions: for Relative brain infarct volume on Day 7 (%) (mean + SD) / percentage change of relative brain infarct volume on Day 7 vs the control group: repeated administration (7 days); for efficacy when administered as monotherapies: low doses, monotherapy
Description: (§1) Test compounds were administrated intravenously 20 minutes before reperfusion and then twice a day thereafter for six consecutive days. The modified neurological severity score (NSS) was graded on a scale of 0 to 18 (in which normal score was 0 and maximal deficit score was represented by 18), on Study Day 2 (one day following surgery) and on Study Day 7 (7 days post-surgery and before study termination); it included a set of clinical-neurological tests (composite of motor, sensory, reflex and balance tests). At study termination brains were harvested, sliced into five 2 mm thick coronal sections and stained with triphenyl tetrazolium chloride (TTC) for infarct size measurement using ImageJ program. Morbidity, mortality, body weight and clinical observation were also recorded. […] The statistical significance (P) of treated groups vs the untreated control group was determined using two-way ANOVA followed by Bonferroni post hoc test, using GraphPad Prism 5 program.
(§2) Due to mortality in some of the groups, the numbers within the groups were adjusted to have sufficient animals in all the groups.
(§3) In study Part II, a total of 86 SD male rats (270-320 gr upon arrival) were divided into 9 groups (7 or 15 rats per treated group and 6 rats in the control group). Due to mortality in some of the groups, the numbers within the groups were adjusted to have sufficient animals in all the groups.

[2] = system: rat model of transient middle cerebral artery occlusion; test: Rat t-MCAO: modified neurological severity score (NSS), scale 0 to 18; type: in vivo; conditions: for modified neurological severity score (NSS) compared with the control group on Day 2 / modified neurological severity score (NSS) compared with the control group on Day 7: monotherapy; for Modified NSS on Day 2 (mean + SD) / Modified NSS on Day 7 (mean + SD) / percentage change of Modified NSS on Day 2 vs the control group / percentage change of Modified NSS on Day 7 vs the control group: repeated administration (7 days)
Description: as §1, §2, §3

[3] = system: rat thromboembolic model of stroke; conditions: continuous infusion (75 ng/h), at 7 days post middle cerebral artery occlusion; cited from earlier work
[4] = system: rat model of stroke (middle cerebral artery occlusion); conditions: 10 μg/kg IP loading dose plus 200 ng/h sc infusion beginning 4.5 h or 10 h after onset of ischemia; cited from earlier work
[5] = Treatment I: glibenclamide 1 μg/Kg iv
[6] = Treatment J: glibenclamide 3 μg/Kg iv
[7] = Treatment K: glibenclamide 10 μg/Kg iv
[8] = Treatment L: glibenclamide 30 μg/Kg iv
[9] = lowest doses (treatments A, E and I)
[10] = Treatment F: potassium canrenoate 1 mg/Kg iv
[11] = Treatment G: potassium canrenoate 3 mg/Kg iv
[12] = Treatment H: potassium canrenoate 10 mg/Kg iv

Q: Which “Relative brain infarct volume on Day 7 (%) (mean + SD)” value [1, 5] does the source give for `COc1ccc(Cl)cc1C(=O)NCCc1ccc(S(=O)(=O)NC(=O)NC2CCCCC2)cc1` [GLIBENCLAMIDE, 5-chloro-N-[2-[4-(cyclohexylcarbamoyl-sulfamoyl)phenyl]ethyl]-2-methoxybenzamide] here?
A: 33 ± 10%

Q: And the “percentage change of relative brain infarct volume on Day 7 vs the control group” value [1, 5]?
A: [−21%; NS]

Q: What about the “Relative brain infarct volume on Day 7 (%) (mean + SD)” value [1, 6] of the same compound?
A: 19 ± 9%

Q: What about the “percentage change of relative brain infarct volume on Day 7 vs the control group” value [1, 6] of the same compound?
A: [−55%; ***]

Q: And the “Relative brain infarct volume on Day 7 (%) (mean + SD)” value [1, 7]?
A: 16 ± 9%

Q: And the “percentage change of relative brain infarct volume on Day 7 vs the control group” value [1, 7]?
A: [−62%; ***]

Q: What about the “Relative brain infarct volume on Day 7 (%) (mean + SD)” value [1, 8] of the same compound?
A: 17 ± 8%

Q: What about the “percentage change of relative brain infarct volume on Day 7 vs the control group” value [1, 8] of the same compound?
A: [−60%; ***]

Q: What about the “efficacy when administered as monotherapies” value [1] of the same compound?
A: ineffective

Q: And the “modified neurological severity score (NSS) compared with the control group on Day 2” value ([2]; 3 μg/kg dose (treatment J))?
A: did not show a statistically significant decrease

Q: And the “Modified NSS on Day 2 (mean + SD)” value [2, 5]?
A: 14 ± 1

Q: And the “Modified NSS on Day 7 (mean + SD)” value [2, 5]?
A: 12 ± 1

Q: What about the “percentage change of Modified NSS on Day 2 vs the control group” value [2, 5] of the same compound?
A: [0%; NS]

Q: What about the “percentage change of Modified NSS on Day 7 vs the control group” value [2, 5] of the same compound?
A: [−8%; NS]

Q: What about the “Modified NSS on Day 2 (mean + SD)” value [2, 6] of the same compound?
A: 13 ± 3

Q: What about the “Modified NSS on Day 7 (mean + SD)” value [2, 6] of the same compound?
A: 10 ± 1

Q: And the “percentage change of Modified NSS on Day 2 vs the control group” value [2, 6]?
A: [−7%; NS]

Q: And the “percentage change of Modified NSS on Day 7 vs the control group” value [2, 6]?
A: [−23%; *]

Q: And the “Modified NSS on Day 2 (mean + SD)” value [2, 7]?
A: 11 ± 3

Q: What about the “Modified NSS on Day 7 (mean + SD)” value [2, 7] of the same compound?
A: 8 ± 2

Q: And the “percentage change of Modified NSS on Day 2 vs the control group” value [2, 7]?
A: [−21%; **]

Q: What about the “percentage change of Modified NSS on Day 7 vs the control group” value [2, 7] of the same compound?
A: [−38%; ***]

Q: And the “Modified NSS on Day 2 (mean + SD)” value [2, 8]?
A: 11 ± 3

Q: What about the “Modified NSS on Day 7 (mean + SD)” value [2, 8] of the same compound?
A: 8 ± 1

Q: What about the “percentage change of Modified NSS on Day 2 vs the control group” value [2, 8] of the same compound?
A: [−21%; **]

Q: What about the “percentage change of Modified NSS on Day 7 vs the control group” value [2, 8] of the same compound?
A: [−38%; ***]

Q: What about the “modified neurological severity score (NSS) compared with the control group on Day 2” value [2, 9] of the same compound?
A: did not show a statistically significant decrease

Q: And the “modified neurological severity score (NSS) compared with the control group on Day 7” value [2, 9]?
A: did not show a statistically significant decrease

Q: What about the “reduction of cerebral edema, infarct volume and mortality” value [3] of the same compound?
A: 50%

Q: What about the “hemispheric swelling at 24 h and 48-h mortality” value [4] of the same compound?
A: significantly reduced

Q: With `C[C@]12CCC(=O)C=C1C=C[C@@H]1[C@@H]2CC[C@@]2(C)[C@H]1CC[C@@]2(O)CCC(=O)[O-].[K+]` [POTASSIUM CANRENOATE, potassium 3-[(8R,9S,10R,13S,14S,17R)-17-hydroxy-10,13-dimethyl-3-oxo-2,8,9,11,12,14,15,16 octahydro-1H-cyclopenta[a]phenanthren-17-yl]propanoate] as the compound, how does the “Relative brain infarct volume on Day 7 (%) (mean + SD)” value [1, 10] read?
A: 15 ± 6%

Q: And the “percentage change of relative brain infarct volume on Day 7 vs the control group” value [1, 10]?
A: [−64%; ***]

Q: What about the “Relative brain infarct volume on Day 7 (%) (mean + SD)” value [1, 11] of the same compound?
A: 28 ± 11%

Q: What about the “percentage change of relative brain infarct volume on Day 7 vs the control group” value [1, 11] of the same compound?
A: [−33%; **]

Q: What about the “Relative brain infarct volume on Day 7 (%) (mean + SD)” value [1, 12] of the same compound?
A: 12 ± 3%

Q: What about the “percentage change of relative brain infarct volume on Day 7 vs the control group” value [1, 12] of the same compound?
A: [−71%; ***]

Q: And the “efficacy when administered as monotherapies” value [1]?
A: ineffective

Q: And the “Modified NSS on Day 2 (mean + SD)” value [2, 10]?
A: 12 ± 3

Q: What about the “Modified NSS on Day 7 (mean + SD)” value [2, 10] of the same compound?
A: 8 ± 1

Q: And the “percentage change of Modified NSS on Day 2 vs the control group” value [2, 10]?
A: [−14%; *]

Q: And the “percentage change of Modified NSS on Day 7 vs the control group” value [2, 10]?
A: [−38%; ***]

Q: What about the “Modified NSS on Day 2 (mean + SD)” value [2, 11] of the same compound?
A: 11 ± 2

Q: What about the “Modified NSS on Day 7 (mean + SD)” value [2, 11] of the same compound?
A: 10 ± 2

Q: And the “percentage change of Modified NSS on Day 2 vs the control group” value [2, 11]?
A: [−21%; *]

Q: What about the “percentage change of Modified NSS on Day 7 vs the control group” value [2, 11] of the same compound?
A: [−23%; *]

Q: And the “Modified NSS on Day 2 (mean + SD)” value [2, 12]?
A: 10 ± 1

Q: What about the “Modified NSS on Day 7 (mean + SD)” value [2, 12] of the same compound?
A: 8 ± 1

Q: And the “percentage change of Modified NSS on Day 2 vs the control group” value [2, 12]?
A: [−29%; **]

Q: What about the “percentage change of Modified NSS on Day 7 vs the control group” value [2, 12] of the same compound?
A: [−38%; ***]

Q: And the “modified neurological severity score (NSS) compared with the control group on Day 2” value [2, 9]?
A: did not show a statistically significant decrease

Q: And the “modified neurological severity score (NSS) compared with the control group on Day 7” value [2, 9]?
A: did not show a statistically significant decrease
